# According to patent publication EP2832223A1, “HERBICIDAL COMPOSITION” (Ishihara Sangyo Kaisha, Ltd., priority 2012, dated 2013):
# What was measured:
# Assay type in all cases: in vivo
# [1] = system: velvetleaf (Abutilon theophrasti Medic.); test: Test Example 16: pot test, soil and foliar treatment, visual growth inhibition; conditions: read-out: Growth inhibition rate (%) of velvetleaf Measured value
# Source text: (§1) Upland field soil was put into a 1/1,000,000 ha pot, and seeds of velvetleaf (Abutilon theophrasti Medic.) were sown. When the velvetleaf reached 4.0 to 4.3-leaf stage, seeds of velvetleaf were further sown in the same pot assuming conditions such that weeds would later grow. Three days later, predetermined amounts of ONEHOPE NYUZAI (tradename), Click (tradename), Callisto (tradename), Mikado (tradename), a wettable powder containing bicyclopyrone as an active ingredient and Clio (tradename) were diluted with water in an amount corresponding to 300 L/ha and applied for soil treatment and for foliar treatment by a small sprayer.
# (§2) On the 29th day after treatment, the state of growth of the velvetleaf was visually observed to determine the growth inhibition rate (%). The growth inhibition rate (%) (measured value) and the growth inhibition rate (%) calculated in the same manner as in the above Test Example 1 are shown in Table 16.
# [2] = system: velvetleaf (Abutilon theophrasti Medic.); test: Test Example 14: pot test, soil and foliar treatment, visual growth inhibition; conditions: read-out: Growth inhibition rate (%) of velvetleaf Measured value
# Source text: as §1, with “On the next day,” for “Three days later,”
# as §2, with “31 st” for “29th”, “14.” for “16.”
# [3] = system: prickly sida (Sida spinosa L.); test: Test Example 10: pot test, soil treatment, visual growth inhibition; conditions: read-out: Growth inhibition rate (%) of prickly sida Measured value
# Method: (§3) Upland field soil was put into a 1/300,000 ha pot, and seeds of prickly sida (Sida spinosa L.) were sown. On the next day, predetermined amounts of ONEHOPE NYUZAI (tradename), Click (tradename), Spectrum (tradename), Callisto (tradename) and Clio (tradename) were diluted with water (in an amount corresponding to 1,000 L/ha) and applied for soil treatment by a small sprayer.
# as §2, with “28th” for “29th”, “prickly sida” for “velvetleaf”, “10.” for “16.”
# [4] = system: Japanese millet (Echinochloa utilis Ohwi et Yabuno); test: Test Example 5: pot test, soil treatment, visual growth inhibition; conditions: soil, read-out: Growth inhibition rate (%) of Japanese millet Measured value
# Method: (§4) Upland field soil was put into a 1/300,000 ha pot, and seeds of Japanese millet (Echinochloa utilis Ohwi et Yabuno) were sown. On the next day, predetermined amounts of ONEHOPE NYUZAI (tradename), Click (tradename) and SC formulation containing topramezone as an active ingredient (tradename: Clio, manufactured by BASF) were diluted with water (in an amount corresponding to 1,000 L/ha) and applied for soil treatment by a small sprayer.
# as §2, with “28th” for “29th”, “Japanese millet” for “velvetleaf”, “5.” for “16.”
# [5] = system: rostrate sesbania (Sesbania rostrata Bremek. & Oberm.); test: Test Example 8: pot test, soil treatment, visual growth inhibition; conditions: soil, read-out: Growth inhibition rate (%) of rostrate sesbania Measured value
# Method: as §3, with “rostrate sesbania (Sesbania rostrata Bremek. & Oberm.)” for “prickly sida (Sida spinosa L.)”, “Spectrum” for “Spectrum (tradename), Callisto”
# as §2, with “28th” for “29th”, “rostrate sesbania” for “velvetleaf”, “8.” for “16.”
# [6] = system: guinea grass (Panicum maximum Jacq.); test: Test Example 15: pot test, soil and foliar treatment, visual growth inhibition; conditions: Megathyrsus maximus, 250 g/ha, 31st day after treatment, read-out: Growth inhibition rate (%) of guinea grass Measured value
# Method: Upland field soil was put into a 1/1,000,000 ha pot, and seeds of guinea grass (Panicum maximum Jacq.) were sown. When the guinea grass reached 5.2 to 6.0-leaf stage, seeds of guinea grass were further sown in the same pot assuming conditions such that weeds would later grow. On the next day, predetermined amounts of ONEHOPE NYUZAI (tradename), Click (tradename), Spectrum (tradename) and Cadou (tradename) were diluted with water in an amount corresponding to 300 L/ha and applied for soil treatment and for foliar treatment by a small sprayer.
# as §2, with “31 st” for “29th”, “guinea grass” for “velvetleaf”, “15.” for “16.”
# [7] = system: common cocklebur (Xanthium strumarium L.); test: Test Example 12: pot test, foliar treatment, visual growth inhibition; conditions: 250 g/ha, foliar treatment at 4.2 to 4.3-leaf stage, 28th day after treatment, read-out: Growth inhibition rate (%) of common cocklebur Measured value
# Method: Upland field soil was put into a 1/1,000,000 ha pot, and seeds of common cocklebur (Xanthium strumarium L.) were sown. When the common cocklebur reached 4.2 to 4.3-leaf stage, predetermined amounts of ONEHOPE NYUZAI (tradename), Click (tradename) and water dispersible granules containing flufenacet as an active ingredient (tradename: Cadou, manufactured by Bayer CropScience) were diluted with water (in an amount corresponding to 1,000 L/ha) and applied for foliar treatment by a small sprayer.
# as §2, with “28th” for “29th”, “common cocklebur” for “velvetleaf”, “12.” for “16.”
# [8] = system: wild oat (Avena fatua L.); test: Test Example 2: pot test, soil treatment, visual growth inhibition; conditions: 50 g/ha, 28th day after treatment, read-out: Growth inhibition rate (%) of wild oat Measured value
# Method: as §4, with “1/500,000” for “1/300,000”, “wild oat (Avena fatua L.)” for “Japanese millet (Echinochloa utilis Ohwi et Yabuno)”, “mesotrione” for “topramezone”, “Callisto,” for “Clio,”, “Syngenta)” for “BASF)”
# as §2, with “28th” for “29th”, “wild oat” for “velvetleaf”, “2.” for “16.”
# [9] = system: sunn-hemp (Crotalaria juncea L.); test: Test Example 7: pot test, soil treatment, visual growth inhibition; conditions: soil, read-out: Growth inhibition rate (%) of sunn-hemp Measured value
# Method: as §3, with “sunn-hemp (Crotalaria juncea” for “prickly sida (Sida spinosa”, “Mikado” for “Spectrum (tradename), Callisto”, “a wettable powder containing bicyclopyrone prepared in accordance with a conventional formulation method” for “Clio (tradename)”
# as §2, with “28th” for “29th”, “sunn-hemp” for “velvetleaf”, “7.” for “16.”
# [10] = system: Japanese millet (Echinochloa utilis Ohwi et Yabuno); test: Test Example 9: pot test, soil treatment, visual growth inhibition; conditions: soil, read-out: Growth inhibition rate (%) of Japanese millet Measured value
# Method: as §4, with “Click (tradename), Mikado” for “Click”, “a wettable powder containing bicyclopyrone prepared in accordance with a conventional” for “SC”, “method” for “containing topramezone as an active ingredient (tradename: Clio, manufactured by BASF)”
# as §2, with “28th” for “29th”, “Japanese millet” for “velvetleaf”, “9.” for “16.”
# [11] = system: green foxtail (Setaria viridis (L.) P.Beauv.); test: Test Example 3: pot test, soil treatment, visual growth inhibition; conditions: soil, read-out: Growth inhibition rate (%) of green foxtail Measured value
# Method: as §4, with “1/1,000,000” for “1/300,000”, “green foxtail (Setaria viridis (L.) P.Beauv.)” for “Japanese millet (Echinochloa utilis Ohwi et Yabuno)”, “sulcotrione” for “topramezone”, “Mikado,” for “Clio,”, “Bayer CropScience)” for “BASF)”
# as §2, with “27th” for “29th”, “green foxtail” for “velvetleaf”, “3.” for “16.”
# [12] = system: annual ragweed (Ambrosia artemisiifolia L.); test: Test Example 11: pot test, soil treatment, visual growth inhibition; conditions: soil, read-out: Growth inhibition rate (%) of annual ragweed Measured value
# Method: (§5) Upland field soil was put into a 1/300,000 ha pot, and seeds of annual ragweed (Ambrosia artemisiifolia L.) were sown. On the next day, predetermined amounts of ONEHOPE NYUZAI (tradename), Click (tradename), Mikado (tradename) and a wettable powder containing bicyclopyrone prepared in accordance with a conventional formulation method were diluted with water (in an amount corresponding to 1,000 L/ha) and applied for soil treatment by a small sprayer.
# as §2, with “28th” for “29th”, “annual ragweed” for “velvetleaf”, “11.” for “16.”
# [13] = system: korean lespedeza (Kummerowia stipulacea (Maxim.) Makino); test: Test Example 6: pot test, soil treatment, visual growth inhibition; conditions: soil, read-out: Growth inhibition rate (%) of korean lespedeza Measured value
# Method: as §5, with “korean lespedeza (Kummerowia stipulacea (Maxim.) Makino)” for “annual ragweed (Ambrosia artemisiifolia L.)”
# as §2, with “14th” for “29th”, “korean lespedeza” for “velvetleaf”, “6.” for “16.”
smiles,measurement,setting,value
"Cc1c(C(=O)c2cnn(C)c2O)ccc(S(C)(=O)=O)c1C1=NOCC1 [Topramezone, [3-(4,5-dihydro-1,2-oxazol-3-yl)-4-mesyl-o-tolyl](5-hydroxy-1-methylpyrazol-4-yl)methanone]",inhibition at 20 g/ha,[1],50%
same,inhibition at 10 g/ha,[2],8%
same,inhibition at 60 g/ha,[2],65%
same,inhibition at 10 g/ha,[3]; soil,0%
same,inhibition at 40 g/ha,[4],30%
same,inhibition at 100 g/ha,[5],80%
"CC(C)N(C(=O)COc1nnc(C(F)(F)F)s1)c1ccc(F)cc1 [Flufenacet, 4'-fluoro-N-isopropyl-2-[5-(trifluoromethyl)-1,3,4-thidiazol-2-yloxy]acetanilide]",inhibition at 250 g/ha,[6],50%
same,inhibition at 250 g/ha,[7],0%
"CS(=O)(=O)c1ccc(C(=O)C2C(=O)CCCC2=O)c([N+](=O)[O-])c1 [Mesotrione, 2-(4-mesyl-2-nitrobenzoyl)cyclohexane-1,3-dione]",inhibition at 75 g/ha,"[1]; 75 g/ha, soil treatment and foliar treatment, 29th day after treatment",89%
same,inhibition at 50 g/ha,"[2]; 50 g/ha, soil treatment and foliar treatment, 31st day after treatment",91%
same,inhibition at 120 g/ha,"[2]; 120 g/ha, soil treatment and foliar treatment, 31st day after treatment",93%
same,inhibition at 50 g/ha,[8],0%
same,inhibition at 25 g/ha,"[3]; 25 g/ha, soil treatment, 28th day after treatment",25%
"CS(=O)(=O)c1ccc(C(=O)C2C(=O)CCCC2=O)c(Cl)c1 [Sulcotrione, 2-(2-chloro-4-mesylbenzoyl)cyclohexane-1,3-dione]",inhibition at 50 g/ha,[9],10%
same,inhibition at 50 g/ha,[10],20%
same,inhibition at 200 g/ha,[1],88%
same,inhibition at 100 g/ha,[2],88%
same,inhibition at 300 g/ha,[2],90%
same,inhibition at 300 g/ha,[11],5%
same,inhibition at 2000 g/ha,[12],85%
same,inhibition at 1000 g/ha,[13],15%
